{
  "source": "patent US20170202845A1",
  "about": "“PROPHYLACTIC OR THERAPEUTIC AGENT FOR A POSTERIOR OCULAR DISEASE” (SANTEN PHARMACEUTICAL CO., LTD., priority 2014, published 2017)",
  "tested_on": "choroidal neovascularization",
  "experiment": "laser-induced rat choroidal neovascularization model",
  "assay_type": "in vivo",
  "description": "Usefulness of the present compounds was evaluated using a laser-induced rat choroidal neovascularization model (Invest. Ophthalmol. Vis. Sci., 40(2), 459-466 (1999)).\nA rat was generally anesthetized by intramuscular administration of 1 mL/kg of a mixed solution (7:1) comprising a 5% (W/V) ketamine hydrochloride injection solution and a 2% xylazine hydrochloride injection solution. 0.5% (W/V) Tropicamide-0.5% phenylephrine hydrochloride eye drop was dropped into eyes for mydriasis, and photocoagulation was carried out with a krypton laser photocoagulation apparatus. […]\nAt the 7th day after the photocoagulation, the rat was generally anesthetized by intramuscular administration of 1 mL/kg of a mixed solution (7:1) comprising a 5% (W/V) ketamine hydrochloride injection solution and a 2% xylazine hydrochloride injection solution. […] The spot of photocoagulation with no leakage of fluorescence detected by fluorescein fundus angiography was judged as negative (no neovascularization), and the spot of photocoagulation with leakage of fluorescence was judged as positive. The spot of photocoagulation with slight leakage of fluorescence was judged as positive (neovascularization exists) when 2 or more spots of such a state were detected in one eye. […]",
  "data": [
    {"molecule": "CC(=O)N[C@@H]1C[C@H](NC(C)(C)C)CC[C@@H]1N1CC[C@H](Nc2ncnc3cc(C(C)(C)C)nn23)C1=O", "note": "[Compound 1b, N-((1R,2S,5R)-5-(tert-butylamino)-2-((S)-3-(7-tert-butylpyrazolo[1,5-a][1,3,5]triazin-4-ylamino)-2-oxopyrrolidin-1-yl)cyclohexyl)acetamide]", "values": [
      {"measurement": "Suppressing rate (%)", "setting": "krypton laser-induced rat choroidal neovascularization, 100 mg/kg orally twice a day for 7 days, fluorescein fundus angiography at 7th day, relative to base administered group", "value": 66.6, "unit": "%"},
      {"measurement": "inhibition of choroidal neovascularization (in words)", "setting": "laser-induced rat choroidal neovascularization model animal", "value": "inhibit choroidal neovascularization"}
    ]}
  ]
}
